Experimental findings from PubChem BioAssay (NCI) are described below.

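The compound was tested at five concentrations on cells cultured in 96-well plates, with a 48-hour exposure period. The concentration for 50% growth inhibition is given as GI50. The concentration for full growth arrest is given as TGI.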 Where only a bound is given, the exact number is not on record here.

Some test systems named below: HT29 colon; CAKI-1 renal; NCI/ADR-RES ovarian; SF-295 CNS; UO-31 renal; HCT-116 colon; HCT-15 colon; NCI-H226 lung.
Common to all, as to assay: NCI-60 cell line screen, 48 h

With `C=C/C(C)=C/C[C@]1(C)[C@H](C)[C@@H](OC(=O)CCC)[C@H](O)[C@@]23C(=C[C@H](OC)C[C@@H]12)[C@@H](OC(=O)CCC)O[C@H]3OC(C)=O`, the GI50 in the test on HT29 colon is 343 nM; in the test on CAKI-1 renal, 1320 nM; in the test on NCI/ADR-RES ovarian it was 880 nM; in the test on SF-295 CNS, 0.992 µM; in the test on UO-31 renal, 212 nM; in the test on HCT-116 colon it was 495 nM. The results for the GI50 in the test on HCT-15 colon and in the test with NCI-H226 lung were 340 nM and 380 nM, respectively. In addition, the TGI with HT29 colon was found to be 1.42 µM; with CAKI-1 renal, 2.64 µM; in the test on NCI/ADR-RES ovarian it was 2.46 µM; with SF-295 CNS, 2.48 µM; in the test on UO-31 renal, 0.586 µM; in the test with HCT-116 colon, 1.96 µM. For the same compound, the TGI is 1.29 µM with HCT-15 colon and 1.34 µM in the test on NCI-H226 lung.

As to `CN(C)c1ccc(/C=C2\N=C(c3ccccc3)N(c3cc(C(F)(F)F)ccc3Cl)C2=O)cc1`, the GI50 with HT29 colon is > 100000 nM; with CAKI-1 renal it was > 100000 nM; in the test with NCI/ADR-RES ovarian, > 100000 nM; in the test on SF-295 CNS it was > 100 µM; in the test with UO-31 renal it was > 100000 nM; with HCT-116 colon, > 100000 nM. For the same compound, the values for the GI50 with HCT-15 colon and in the test on NCI-H226 lung were > 100000 nM and > 90400 nM, respectively. The TGI in the test with HT29 colon, with CAKI-1 renal, with NCI/ADR-RES ovarian, with SF-295 CNS, in the test with UO-31 renal and in the test with HCT-116 colon was > 100 µM each time. Moreover, the TGI in the test with HCT-15 colon and with NCI-H226 lung was > 100 µM throughout.

For `O=C(Nc1ccc(-n2ccc3c(NC(=O)c4ccccc4)ncnc32)cc1)c1cccc(C(F)(F)F)c1`, the GI50 with HT29 colon is 457 nM; in the test with CAKI-1 renal it was 1130 nM; with NCI/ADR-RES ovarian, 2670 nM; with SF-295 CNS it was 1.07 µM; with UO-31 renal, 3420 nM; in the test with HCT-116 colon it was 139 nM. Besides, the GI50 is 64.3 nM in the test with HCT-15 colon and 6140 nM in the test on NCI-H226 lung. In addition, the TGI is 15.7 µM with HT29 colon; > 44.6 µM with CAKI-1 renal; 37.4 µM in the test with NCI/ADR-RES ovarian; 16.9 µM in the test on SF-295 CNS; 21.7 µM in the test with UO-31 renal; 15.9 µM in the test with HCT-116 colon. The TGI with HCT-15 colon stood at 24.8 µM; with NCI-H226 lung, 26.1 µM.

Take `C=C1C(=O)O[C@H]2[C@H]1CC/C(COC(=O)NCc1ccc(OC)cc1)=C\CC[C@@]1(C)O[C@@H]21`: the GI50 with HT29 colon was 835 nM; in the test on CAKI-1 renal, 628 nM; in the test on NCI/ADR-RES ovarian it was 2690 nM; with SF-295 CNS, 11.1 µM; in the test with UO-31 renal, 501 nM; in the test on HCT-116 colon, 471 nM. In addition, the values for the GI50 with HCT-15 colon and with NCI-H226 lung were 570 nM and 1100 nM, respectively. Moreover, the TGI is 2.78 µM in the test on HT29 colon; 2.08 µM in the test on CAKI-1 renal; 21.6 µM in the test on NCI/ADR-RES ovarian; 25 µM in the test with SF-295 CNS; 0.991 µM in the test with UO-31 renal; 1.02 µM in the test with HCT-116 colon. For the same compound, the TGI was 1.87 µM in the test on HCT-15 colon and 5.01 µM in the test on NCI-H226 lung.

As for `O=[N+]([O-])c1nccn1CC(O)CN1CCCCC1` (centres undefined), the TGI in the test on HT29 colon, in the test on CAKI-1 renal, in the test on NCI/ADR-RES ovarian, with SF-295 CNS, with UO-31 renal and in the test on HCT-116 colon was > 100 µM each time. Moreover, the TGI in the test with HCT-15 colon and with NCI-H226 lung was > 100 µM throughout.

Turning to `O=C(/C=C/c1ccc(O)c(O)c1)NCc1c[nH]c2ccccc12`, the GI50 in the test on HT29 colon was 47200 nM; in the test with CAKI-1 renal it was 27900 nM; with NCI/ADR-RES ovarian, > 100000 nM; in the test with SF-295 CNS it was 62.4 µM; with UO-31 renal, 36900 nM; with HCT-116 colon, 62200 nM. For the same compound, the values for the GI50 in the test with HCT-15 colon and in the test with NCI-H226 lung were 44200 nM and 71300 nM, respectively. Besides, the TGI in the test on HT29 colon, in the test on CAKI-1 renal, in the test on NCI/ADR-RES ovarian, in the test on SF-295 CNS, in the test on UO-31 renal and in the test on HCT-116 colon was > 100 µM throughout. Also, the TGI in the test on HCT-15 colon and in the test with NCI-H226 lung was > 100 µM throughout.

On to `CC[C@@]1(OC(=O)CN)C(=O)OCc2c1cc1n(c2=O)Cc2c-1nc1cc3c(cc1c2CCl)OCO3`, for which the GI50 in the test on HT29 colon was 52 nM; in the test with CAKI-1 renal it was < 10 nM; in the test on NCI/ADR-RES ovarian, < 10 nM; with SF-295 CNS, < 0.01 µM; with UO-31 renal, < 10 nM; in the test on HCT-116 colon, < 10 nM. Moreover, the GI50 is 372 nM in the test on HCT-15 colon and 20.1 nM in the test with NCI-H226 lung. The TGI in the test with HT29 colon was 1.22 µM; in the test on CAKI-1 renal, 1.98 µM; in the test with NCI/ADR-RES ovarian, 0.0583 µM; in the test with SF-295 CNS, 11.2 µM; in the test with UO-31 renal, 1.44 µM; in the test on HCT-116 colon, > 100 µM. Also, the TGI in the test on HCT-15 colon came to 10.2 µM; in the test on NCI-H226 lung, 0.397 µM.

Take `Cn1c(=O)c2[nH]c(SCCN3CCOCC3)nc2n(C)c1=S`: the TGI in the test with HT29 colon, in the test with CAKI-1 renal, with NCI/ADR-RES ovarian, in the test on SF-295 CNS, in the test with UO-31 renal and with HCT-116 colon was > 100 µM throughout. Moreover, the TGI in the test on HCT-15 colon and with NCI-H226 lung was > 100 µM in each case.

For the compound `CN1CCN(Cc2ccc(NC(=O)c3cncc(C#Cc4cnc(N)cc4C#N)c3)cc2C(F)(F)F)CC1`, the GI50 is 1040 nM in the test with HT29 colon; 3780 nM in the test with CAKI-1 renal; 13700 nM in the test on NCI/ADR-RES ovarian; 3.54 µM in the test on SF-295 CNS; 2000 nM in the test on UO-31 renal; 1430 nM in the test on HCT-116 colon. The results for the GI50 with HCT-15 colon and with NCI-H226 lung were 3870 nM and 706 nM, respectively. Also, the TGI came out at 15.5 µM in the test on HT29 colon; 16.7 µM with CAKI-1 renal; 33.4 µM in the test with NCI/ADR-RES ovarian; 15.3 µM in the test on SF-295 CNS; 6.95 µM in the test with UO-31 renal; 9.85 µM in the test with HCT-116 colon. Also, the values for the TGI in the test with HCT-15 colon and in the test on NCI-H226 lung were 13.9 µM and 11.9 µM, respectively.

On to `CCC(C)Oc1nc2c(c(=O)n(C)c(=O)n2C)n1C` (centres undefined), for which the GI50 is > 100000 nM in the test on HT29 colon; > 100000 nM with CAKI-1 renal; > 100000 nM in the test with NCI/ADR-RES ovarian; > 100 µM in the test on SF-295 CNS; > 100000 nM with UO-31 renal; > 100000 nM in the test with HCT-116 colon. Further, the GI50 with HCT-15 colon and with NCI-H226 lung was > 100000 nM in each case. Moreover, the TGI with HT29 colon, in the test with CAKI-1 renal, in the test on NCI/ADR-RES ovarian, in the test on SF-295 CNS, with UO-31 renal and in the test on HCT-116 colon was > 100 µM throughout. The TGI in the test on HCT-15 colon and in the test with NCI-H226 lung was > 100 µM throughout.
